This note sets out measurements from US20090088439A1, “Diazinane Compounds” (priority 2007, published 2009).

The target of assay [1] is T1, GABABR1a/GABABR2 heterodimer (Homo sapiens, UniProt O75899+Q9UBS5).
T1 construct: expressed in transfected cells; membrane preparation
The assay can be described thus: GTPγS35 radioligand filtration-binding assay for determination of agonist potency. It is filed as biochemical. The following applies: membranes of CHO K1 Flp-In cells expressing GABABR1a/GABABR2; compound alone. How it is done: The potency and efficacy of the compounds acting as agonists at the GABAB receptor was also determined in a automated GTPγS^35 radioligand filtration-binding assay.
(§1) The GABAB receptor is a G-protein coupled receptor. Binding of a ligand activates the receptor leading to recruitment of G-protein and a substitution of the G-protein bound GDP to GTP. The G-protein becomes active. The G-protein is inactivated by hydrolysis of GTP to GDP. G-proteins are membrane bound and therefore present in membrane preparations.
(§2) In the GTPγS^35 assay, GTP is not present but instead GTPγS^35 where one of the phosphate groups are substituted to a sulphur group which cannot be hydrolysed. Upon activation of the receptor, radiolabelled GTPγS^35 replaces the GDP. The complex cannot be inactivated and the radiolabelled complex is accumulating. At the end of the assay, the reaction mixture is filtered through a membrane-binding filter. Excess GTPγS^35 is removed by washing and the membrane bound S^35, which correlates to the degree of receptor activation, is measured with a β-Liquid Scintillation Counter.
The human GABABR1a was subcloned into pIRESneo3 (Clontech) using GABABR1a construct as a template (refseqN NM001470). GABABR2 was subcloned into pCDNA5/FRT (Invitrogen) using GABABR2 construct as a template (refseqN NM005458). The Kozak sequence GCCACC was introduced before the start codon in both constructs.
For generation of stable cell lines, CHO K1 Flp-In cells (Invitrogen) were grown in DMEM/F 12 1:1 media supplemented with 10% FBS at 37° C. in a humidified CO2-incubator. The cells were detached with Accutase and 1.5 million cells were seeded into T75 flasks. After 24 h, transfection of the cells were performed with the GABABR2 construct. For generation of cell lines expressing GABABR2, GABABR2 plasmid (1 μg) and pOG44 from Invitrogen (9 μg) were mixed with 30 μl Lipofectamine 2000 in 600 μl OptiMEM for 20 minutes. The cells were exposed to transfection medium for 5 hours and was then replaced with culture medium. After 2 days 0.5 mg/ml Hygromycin were added to culture medium. The cells were cultured for an additional 10 days to establish a stable cell mix expressing GABABR2. For generation of a cell line expressing the GABABR1a/GABABR2 heterodimer, GABABR1a plasmid DNA (8 μg) and Lipofectamine (30 μl) were mixed in 600 μl OptiMEM and incubated for 20 minutes before added to CHO-Flp-In cells expressing GABABR2. After 2 days additional selection agent was added (0.8 mg/ml Geneticin). The cells were cultured for another 10 days to generate a stable mixed population expressing the GABABR1a/GABABR2 heterodimer. The cell line was analyzed by GTPγS^35 assay with GABA as agonist.
GTPγS^35 radioligand filtration-binding assays were performed using an automated workstation at 30° C. for 1 hour in assay buffer (50 mM HEPES, 40 mM NaCl, 1 mM MgCl2×6H2O, 30 μg/mL Saponin, pH 7.4 at RT) containing 0.025 μg/μL of membrane protein (prepared from the cell line described above), 10 μM GDP and 0.55 nCi/μL GTPγS^35 in a final volume of 60 μL. The reaction was started by the addition of compounds (GABA was always included as a positive control), start concentration 100 μM dilution factor 3. The reaction was terminated and membranes collected by addition of ice-cold wash buffer (50 mM Tris-HCl, 5 mM MgCl2×6H2O, 50 mM NaCl, pH 7.4 at 4° C.) followed by rapid filtration under vacuum through a MultiScreen HTS 384 FB filter plate. Repeated washing of the filters with ice-cold wash buffer washed the unbound radioligand away. The filter plates were dried for 1½-2 hours at 50° C., then 8 μL scintillation liquid was added per well followed by incubation at RT for at least 20 minutes before bound radioactivity was determined using a β-Liquid Scintillation Counter (1450 Microbeta Trilux, Wallac, Finland)
100% activation (max) is calculated as the mean value for wells containing 1 mM GABA. […]

The target in assay [2] is T2, GABAB(1A,2) receptor heterodimer (Homo sapiens, UniProt O75899+Q9UBS5).
T2 construct: expressed in transfected cells; membrane preparation
T2 sequence (Q9UBS5 15-961 limits assumed): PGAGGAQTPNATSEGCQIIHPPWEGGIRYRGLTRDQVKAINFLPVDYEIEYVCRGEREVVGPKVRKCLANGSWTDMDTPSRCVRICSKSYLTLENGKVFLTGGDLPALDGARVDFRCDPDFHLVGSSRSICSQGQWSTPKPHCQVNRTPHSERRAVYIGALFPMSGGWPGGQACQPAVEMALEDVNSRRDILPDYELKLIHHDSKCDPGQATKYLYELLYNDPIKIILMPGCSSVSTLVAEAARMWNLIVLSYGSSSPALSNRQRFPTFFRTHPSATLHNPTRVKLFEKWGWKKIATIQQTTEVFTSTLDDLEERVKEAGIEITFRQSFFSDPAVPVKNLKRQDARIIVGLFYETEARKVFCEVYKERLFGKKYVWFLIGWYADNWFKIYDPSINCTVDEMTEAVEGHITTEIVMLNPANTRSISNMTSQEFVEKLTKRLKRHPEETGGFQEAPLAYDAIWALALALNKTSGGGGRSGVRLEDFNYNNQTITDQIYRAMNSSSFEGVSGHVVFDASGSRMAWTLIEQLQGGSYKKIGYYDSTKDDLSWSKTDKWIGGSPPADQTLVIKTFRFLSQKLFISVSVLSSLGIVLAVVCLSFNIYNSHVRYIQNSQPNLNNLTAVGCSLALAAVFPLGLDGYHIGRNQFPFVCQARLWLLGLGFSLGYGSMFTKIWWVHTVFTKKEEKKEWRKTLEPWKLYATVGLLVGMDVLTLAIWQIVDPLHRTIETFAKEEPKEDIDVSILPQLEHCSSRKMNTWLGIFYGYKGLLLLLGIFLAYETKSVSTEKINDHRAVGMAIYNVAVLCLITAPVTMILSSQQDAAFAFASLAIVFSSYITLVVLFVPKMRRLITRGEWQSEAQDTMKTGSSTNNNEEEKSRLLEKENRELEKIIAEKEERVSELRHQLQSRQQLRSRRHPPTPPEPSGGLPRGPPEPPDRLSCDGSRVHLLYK
T2 sequence (O75899 42-941): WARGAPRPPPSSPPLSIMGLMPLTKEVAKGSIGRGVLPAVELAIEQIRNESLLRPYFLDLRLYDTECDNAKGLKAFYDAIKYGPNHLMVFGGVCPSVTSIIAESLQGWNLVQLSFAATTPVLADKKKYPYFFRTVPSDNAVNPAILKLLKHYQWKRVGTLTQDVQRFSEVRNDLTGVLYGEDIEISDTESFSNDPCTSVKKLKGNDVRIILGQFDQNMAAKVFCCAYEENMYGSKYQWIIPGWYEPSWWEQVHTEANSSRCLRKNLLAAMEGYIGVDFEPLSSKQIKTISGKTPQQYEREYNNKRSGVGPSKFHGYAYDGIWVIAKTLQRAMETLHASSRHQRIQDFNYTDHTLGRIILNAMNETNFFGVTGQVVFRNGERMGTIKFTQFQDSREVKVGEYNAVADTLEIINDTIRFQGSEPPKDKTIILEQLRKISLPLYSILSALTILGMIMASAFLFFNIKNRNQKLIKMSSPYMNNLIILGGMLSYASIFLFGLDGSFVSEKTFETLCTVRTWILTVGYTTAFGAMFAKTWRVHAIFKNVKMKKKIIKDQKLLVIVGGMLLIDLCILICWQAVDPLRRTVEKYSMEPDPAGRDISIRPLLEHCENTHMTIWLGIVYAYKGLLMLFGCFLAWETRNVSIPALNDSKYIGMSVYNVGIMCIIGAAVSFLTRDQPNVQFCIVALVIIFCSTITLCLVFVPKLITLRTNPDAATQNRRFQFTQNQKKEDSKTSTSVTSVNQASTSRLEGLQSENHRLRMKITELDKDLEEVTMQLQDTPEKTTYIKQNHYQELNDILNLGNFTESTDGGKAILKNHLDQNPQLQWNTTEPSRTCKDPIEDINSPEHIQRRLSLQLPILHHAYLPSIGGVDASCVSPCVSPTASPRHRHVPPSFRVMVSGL
The experiment in a line: GTPγS35 radioligand filtration-binding assay for determination of PAM potency. It is filed as biochemical. To be noted: membranes of CHO-K1 cells expressing GABABR1a/GABABR2; concentration required to reduce GABA's EC50 by 50%; PAM at 10, 1, 0.1 and 0.01 μM; read-out: Mean (EC50 derived) PAM EC50.
From the text: The effect of GABA in an automated GTPγS^35 radioligand filtration-binding assay in CHO cells expressing the GABAB(1A,2) receptor heterodimer was studied in the presence or absence of the positive allosteric modulator test compounds. […]
as §1, §2
GABABR1a and GABABR2 were cloned from human brain cDNA and subcloned into pCI-Neo (Promega) and pALTER-1 (Promega), respectively.
In order to optimise the Kozak consensus sequence of GABABR2, in situ mutagenesis was performed using the Altered Sites Mutagenesis kit according to manufacturer's instruction (Promega) with the following primer,
5′-[…]-3′. The optimised GABABR2 was then restricted from pALTER-1 with Xho I+Kpn I and subcloned into the mammalian expression vector pcDNA3.1(−)/Zeo (Invitrogen) to produce the final construct, pcDNA3.1(−)/Zeo-GABABR2.
For generation of stable cell lines, CHO-K1 cells were grown in Nut mix F-12 (Ham) media supplemented with 10% FBS, 100 U/ml Penicillin and 100 μg/ml Streptomycin at 37° C. in a humidified CO2-incubator. The cells were detached with 1 mM EDTA in PBS and 1 million cells were seeded in 100 mm petri dishes. After 24 hours the culture media was replaced with OptiMEM and incubated for 1 hour in a CO2-incubator.
For generation of a cell line expressing the GABABR1a/GABABR2 heterodimer, GABABR1a plasmid DNA (4 μg) GABABR2 plasmid DNA (4 μg) and lipofectamine (24 μl) were mixed in 5 ml OptiMEM and incubated for 45 minutes at room temperature. The cells were exposed to the transfection medium for 5 hours, which then was replaced with culture medium. The cells were cultured for an additional 10 days before selection agents (300 μg/ml hygromycin and 400 μg/ml geneticin) were added. Twenty-four days after transfection, single cell sorting into 96-well plates by flow cytometry was performed using a FACS Vantage SE (Becton Dickinson, Palo Alto, Calif.). After expansion, the GABAB receptor functional response was tested by measuring the GABAB receptor dependent release of intracellular calcium in a fluorescence imaging plate reader (FLIPR). The clone with the highest functional response was collected, expanded and then subcloned by single cell sorting. The clonal cell line with the highest peak response in the FLIPR was used in the present study.
GTPγS^35 radioligand filtration-binding assays were performed using an automated workstation at 30° C. for 1 hour in assay buffer (50 mM HEPES, 40 mM NaCl, 1 mM MgCl2×6H2O, 30 μg/mL Saponin, pH 7.4 at RT) containing 0.025 μg/μL of membrane protein (prepared from the cell line described above), 10 μM GDP and 0.55 nCi/μL GTPγS^35 in a final volume of 60 μL. The reaction was started by the addition of serially diluted GABA (final start concentration 1 mM dilution factor 3) in the presence or absence of four concentrations (final conc 10, 1, 0.1 and 0.01 μM) of PAM. The reaction was terminated and membranes collected by addition of ice-cold wash buffer (50 mM Tris-HCl, 5 mM MgCl2×6H2O, 50 mM NaCl, pH 7.4 at 4° C.) followed by rapid filtration under vacuum through a MultiScreen HTS 384 FB filter plate. […]

The EC50 is the concentration needed to bring the measured effect to its halfway point.

T1 sequence (Q9UBS5 15-961 limits assumed): as the sequence (Q9UBS5 15-961 limits assumed) above
T1 sequence (O75899 42-941): as the sequence (O75899 42-941) above

`CC(C)(C)CCn1c(=O)n(Cc2ccc(Cl)cc2)c(=O)c2nccnc21` [Example 6, 3-(4-chlorobenzyl)-1-(3,3-dimethylbutyl)pteridine-2,4(1H,3H)-dione]: the EC50 in assay [1] was 4700 nM; in assay [2], 800 nM.

Turning to `CCCn1c(=O)n(Cc2ccc(Cl)cc2)c(=O)c2nc(C)c(C)nc21` [Example 15, 3-(4-chlorobenzyl)-6,7-dimethyl-1-propylpteridine-2,4(1H,3H)-dione], the EC50 was determined as 36800 nM in assay [1] and 1300 nM in assay [2].

In the case of `CCCn1c(=O)n(Cc2ccc(Cl)cc2)c(=O)c2nc3c(nc21)CCCC3` [Example 20, 3-(4-chlorobenzyl)-1-propyl-6,7,8,9-tetrahydrobenzo[g]pteridine-2,4(1H,3H)-dione], the EC50 in assay [1] and in assay [2] was 800 nM each time.

Take `CCCn1c(=O)n(Cc2ccc(Cl)cc2)c(=O)c2nc3c(nc21)CCC3` [Example 22, 3-(4-chlorobenzyl)-1-propyl-7,8-dihydro-1H-cyclopenta[g]pteridine-2,4(3H,6H)-dione]: in assay [1], the EC50 was 3700 nM.
